Consider 35 molecules from US20060135522A1, “Tricyclic delta-opioid modulators” (priority 2004, published 2006).

For one assay, the target named is T1, delta opioid receptor (Rattus norvegicus, UniProt P33533).
T1 construct: from tissue; host or cells: forebrain of male Wistar rats (particulate membrane preparation)
In words: Rat Brain Delta Opioid Receptor Binding Assay. On the procedure:
Procedure: Male, Wistar rats (150-250 g, VAF, Charles River, Kingston, N.Y.) were killed by CO2, and their brains were removed and placed immediately in ice cold Tris HCl buffer (50 mM, pH 7.4). The forebrains were separated from the remainder of the brain by a coronal transection, beginning dorsally at the colliculi and passing ventrally through the midbrain-pontine junction. After dissection, the forebrains were homogenized in Tris buffer in a Teflon®-glass homogenizer. The homogenate was diluted to a concentration of 1 g of forebrain tissue per 80 mL Tris and centrifuged at 39,000×g for 10 min. The pellet was resuspended in the same volume of Tris buffer containing 5 mM MgCl2 with several brief pulses from a Polytron homogenizer. This particulate preparation was used for the delta opioid binding assays. Following incubation with the delta selective peptide ligand ˜4 nM [^3H]DPDPE or 0.15 nM [^3H]naltrindole at 25° C. for 2.5 h in a 96-well plate with total volume of […], the plate contents were filtered through Wallac filtermat B sheets on a Tomtec 96-well harvester. The filters were rinsed three times with 2 mL of 10 mM HEPES (pH 7.4), and dried in a 650 W microwave oven for 1.75 min twice. To each sample area 2×50 μL of Betaplate Scint scintillation fluid (LKB) was added and the radioactivity was quantified on a LKB (Wallac) 1205 BetaPlate liquid scintillation counter.
(§1) Analysis: The data from the scintillation counter was used to calculate either the % inhibition compared to control binding (when only a single concentration of test compound was evaluated) or a Ki value (when a range of concentrations was tested). Percent inhibition was calculated as: [(total dpm-test compound dpm)/(total dpm-nonspecific dpm)]*100. Kd and Ki values were calculated using GraphPad PRISM data analysis program.

The target in another assay is T2, mu opioid receptor (Rattus norvegicus, UniProt P33535).
T2 construct: from tissue; host or cells: forebrain of male Wistar rats (particulate membrane preparation)
In words: Rat Brain Mu Opioid Receptor Binding Assay. On the procedure:
Procedure: Male, Wistar rats (150-250 g, VAF, Charles River, Kingston, N.Y.) were killed by CO2, and their brains were removed and placed immediately in ice cold Tris HCl buffer (50 mM, pH 7.4). The forebrains were separated from the remainder of the brain by a coronal transection, beginning dorsally at the colliculi and passing ventrally through the midbrain-pontine junction. After dissection, the forebrains were homogenized in Tris buffer in a Teflon®-glass homogenizer. The homogenate was diluted to a concentration of 1 g of forebrain tissue per 80 mL Tris and centrifuged at 39,000×g for 10 min. The pellet was resuspended in the same volume of Tris buffer containing 5 mM MgCl2 with several brief pulses from a Polytron homogenizer. This particulate preparation was used for the mu opioid binding assays.
as §1

Setting [1] is: rat forebrain membranes, [3H]DPDPE or [3H]naltrindole, 25° C., 2.5 h, read-out: delta (Ki).
The mark [2] stands for this setting: rat forebrain membranes, [3H]DAMGO, 25° C., 2.5 h, read-out: mu (Ki).

Structures are written as SMILES. Like-named read-outs stand apart in the source and are kept apart here.

T1 sequence (P33533 whole entry): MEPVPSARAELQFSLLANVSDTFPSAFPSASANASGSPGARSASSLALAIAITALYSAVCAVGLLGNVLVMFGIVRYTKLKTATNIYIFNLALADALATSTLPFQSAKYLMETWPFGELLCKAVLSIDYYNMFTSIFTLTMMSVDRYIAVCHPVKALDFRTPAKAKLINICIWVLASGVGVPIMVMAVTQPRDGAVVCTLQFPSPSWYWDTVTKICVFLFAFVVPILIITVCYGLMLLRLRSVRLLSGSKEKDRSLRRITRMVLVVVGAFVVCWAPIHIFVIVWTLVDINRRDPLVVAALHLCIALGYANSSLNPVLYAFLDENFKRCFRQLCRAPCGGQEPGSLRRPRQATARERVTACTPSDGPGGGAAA
T2 sequence (P33535 whole entry): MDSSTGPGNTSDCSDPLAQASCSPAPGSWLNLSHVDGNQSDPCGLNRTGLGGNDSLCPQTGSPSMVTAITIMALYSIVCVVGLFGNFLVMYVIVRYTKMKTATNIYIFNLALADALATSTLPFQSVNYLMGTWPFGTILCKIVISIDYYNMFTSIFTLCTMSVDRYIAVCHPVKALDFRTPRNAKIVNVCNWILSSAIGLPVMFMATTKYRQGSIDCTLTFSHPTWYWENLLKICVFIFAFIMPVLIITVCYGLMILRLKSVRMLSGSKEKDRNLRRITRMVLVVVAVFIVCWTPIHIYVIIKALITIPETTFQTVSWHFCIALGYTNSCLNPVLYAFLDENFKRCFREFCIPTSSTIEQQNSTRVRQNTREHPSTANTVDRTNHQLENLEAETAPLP

In the case of `CCN(CC)C(=N)c1ccc2c(c1)Oc1ccccc1C2C1CCNCC1` (stereo not drawn) [1p, N,N-Diethyl-9-piperidin-4-yl-9H-xanthene-3-carboxamidine], the Ki is 51.1 nM at delta opioid receptor and > 10000 nM on mu opioid receptor.

In the case of `CC(=O)Nc1ccccc1-c1ccc2c(c1)Oc1ccccc1C2C1CCNCC1` (stereo not drawn) [2g, N-[2-(9-Piperidin-4-yl-9H-xanthen-3-yl)-phenyl]-acetamide], the values for the Ki on delta opioid receptor (setting [1]) and at mu opioid receptor (setting [2]) were 1020 nM and > 10000 nM, respectively. On the same counts, the results for `c1ccc2c(c1)Oc1cc(-c3ccncc3)ccc1C2C1CCNCC1` (stereo not drawn) [2h, 4-(9-Piperidin-4-yl-9H-xanthen-3-yl)-pyridine] are 4530 nM and > 10000 nM. For `O=c1[nH]c(-c2ccc3c(c2)Oc2ccccc2C3C2CCNCC2)no1` (stereo not drawn) [2m, 3-(9-Piperidin-4-yl-9H-xanthen-3-yl)-4H-[1,2,4]oxadiazol-5-one], the Ki on delta opioid receptor was 634 nM; at mu opioid receptor it was > 10000 nM.

Regarding `CC(=O)Nc1ccccc1-c1ccc2c(c1)Oc1ccccc1C2C1CCN(Cc2ccoc2)CC1` (stereo not drawn) [3g, N-{2-[9-(1-Furan-3-ylmethyl-piperidin-4-yl)-9H-xanthen-3-yl]-phenyl}-acetamide], the Ki at delta opioid receptor turned out to be 100 nM; at mu opioid receptor (setting [2]) it was 4440 nM.

`c1ccc2c(c1)Oc1cc(-c3ccncc3)ccc1C2C1CCN(Cc2ccoc2)CC1` (stereo not drawn) [3h, 4-[9-(1-Furan-3-ylmethyl-piperidin-4-yl)-9H-xanthen-3-yl]-pyridine]: the Ki turned out to be 791 nM at delta opioid receptor and 4260 nM on mu opioid receptor. On the same counts, the results for `Oc1cccc2c1Oc1cc(-c3cccnc3)ccc1C2C1CCNCC1` (stereo not drawn) [3i, 9-Piperidin-4-yl-6-pyridin-3-yl-9H-xanthen-4-ol] are 242 nM and > 10000 nM. `c1ccc2c(c1)Oc1cc(-c3nnn[nH]3)ccc1C2C1CCNCC1` (stereo not drawn) [3l, 4-[3-(1H-Tetrazol-5-yl)-9H-xanthen-9-yl]-piperidine]: the Ki on delta opioid receptor (setting [1]) is 768 nM; at mu opioid receptor (setting [2]), > 10000 nM. On to `CCN(CC)C(=N)c1ccc2c(c1)Oc1ccccc1C2C1CCN(Cc2ccoc2)CC1` (stereo not drawn) [3p, N,N-Diethyl-9-(1-furan-3-ylmethyl-piperidin-4-yl)-9H-xanthene-3-carboxamidine], for which, at delta opioid receptor, the Ki is 16.1 nM.

For the molecule `CC(=O)Nc1ccccc1-c1ccc2c(c1)Oc1c(O)cccc1C2C1CCNCC1` (stereo not drawn) [4e, N-[2-(5-Hydroxy-9-piperidin-4-yl-9H-xanthen-3-yl)-phenyl]-acetamide], the Ki turned out to be 38.1 nM at delta opioid receptor and 289 nM on mu opioid receptor (setting [2]). On to `c1cncc(-c2ccc3c(c2)Oc2ccccc2C3C2CCNCC2)c1` (stereo not drawn) [4f, 3-(9-Piperidin-4-yl-9H-xanthen-3-yl)-pyridine], for which the Ki was 161 nM at delta opioid receptor (setting [1]) and 1000 nM at mu opioid receptor (setting [2]).

With `CC(=O)Nc1ccccc1-c1ccc2c(c1)Oc1ccccc1C2C1CCN(Cc2ccccn2)CC1` (stereo not drawn) [4g, N-{2-[9-(1-Pyridin-2-ylmethyl-piperidin-4-yl)-9H-xanthen-3-yl]-phenyl}-acetamide], the Ki at delta opioid receptor (setting [1]) was found to be 167 nM; at mu opioid receptor (setting [2]), 6980 nM. With `c1ccc(CN2CCC(C3c4ccccc4Oc4cc(-c5ccncc5)ccc43)CC2)nc1` (stereo not drawn) [4h, 4-[9-(1-Pyridin-2-ylmethyl-piperidin-4-yl)-9H-xanthen-3-yl]-pyridine], the Ki was determined as 2640 nM at delta opioid receptor and 2050 nM on mu opioid receptor. As to `Oc1cccc2c1Oc1cc(-c3cccnc3)ccc1C2C1CCN(Cc2cccs2)CC1` (stereo not drawn) [4i, 6-Pyridin-3-yl-9-(1-thiophen-2-ylmethyl-piperidin-4-yl)-9H-xanthen-4-ol], the Ki on delta opioid receptor came out at 96.7 nM. In the case of `c1ccc2c(c1)Oc1cc(-c3nnn[nH]3)ccc1C2C1CCN(Cc2ccoc2)CC1` (stereo not drawn) [4l, 1-Furan-3-ylmethyl-4-[3-(1H-tetrazol-5-yl)-9H-xanthen-9-yl]-piperidine], the results for the Ki on delta opioid receptor (setting [1]) and on mu opioid receptor (setting [2]) were 498 nM and 6320 nM, respectively. The matching figures for `O=C(c1ccc2c(c1)Oc1ccccc1C2C1CCNCC1)N1CC[C@H](O)C1` (stereo partly drawn) [4n, (3-(S)-Hydroxy-pyrrolidin-1-yl)-(9-piperidin-4-yl-9H-xanthen-3-yl)-methanone]: 434 nM and > 10000 nM. Regarding `Oc1cccc2c1Oc1cc(-c3nnn[nH]3)ccc1C2C1CCNCC1` (stereo not drawn) [4r, 9-Piperidin-4-yl-6-(1H-tetrazol-5-yl)-9H-xanthen-4-ol], the Ki at delta opioid receptor amounted to 14 nM. As to `CCNC(=O)c1ccc2c(c1)Oc1c(O)cccc1C2C1CCNCC1` (stereo not drawn) [5d, 5-Hydroxy-9-piperidin-4-yl-9H-xanthene-3-carboxylic acid ethylamide], the Ki on delta opioid receptor (setting [1]) came out at 209 nM; on mu opioid receptor (setting [2]), 876 nM. At delta opioid receptor, `CC(=O)Nc1ccccc1-c1ccc2c(c1)Oc1c(O)cccc1C2C1CCN(Cc2ccccn2)CC1` (stereo not drawn) [5e, N-{2-[5-Hydroxy-9-(1-pyridin-2-ylmethyl-piperidin-4-yl)-9H-xanthen-3-yl]-phenyl}-acetamide] showed a Ki of 0.1 nM.

Consider `c1cncc(-c2ccc3c(c2)Oc2ccccc2C3C2CCN(Cc3ccoc3)CC2)c1` (stereo not drawn) [5f, 3-[9-(1-Furan-3-ylmethyl-piperidin-4-yl)-9H-xanthen-3-yl]-pyridine], for which the results for the Ki on delta opioid receptor (setting [1]) and on mu opioid receptor (setting [2]) were 303 nM and 3160 nM, respectively. As for `Oc1cccc2c1Oc1cc(-c3cccnc3)ccc1C2C1CCN(Cc2ccccc2)CC1` (stereo not drawn) [5i, 9-(1-Benzyl-piperidin-4-yl)-6-pyridin-3-yl-9H-xanthen-4-ol], the Ki on delta opioid receptor was determined as 94 nM. On to `N#Cc1ccc2c(c1)Oc1c(O)cccc1C2C1CCNCC1` (stereo not drawn) [5r, 5-Hydroxy-9-piperidin-4-yl-9H-xanthene-3-carbonitrile], for which the Ki on delta opioid receptor (setting [1]) came to 166 nM. Consider `CC(=O)Nc1ccccc1-c1ccc2c(c1)Oc1c(O)cccc1C2C1CCN(Cc2cccs2)CC1` (stereo not drawn) [6e, N-{2-[5-Hydroxy-9-(1-thiophen-2-ylmethyl-piperidin-4-yl)-9H-xanthen-3-yl]-phenyl}-acetamide], for which the Ki at delta opioid receptor was found to be 0.1 nM. On the same count and under the same terms, with `C=CCN1CCC(C2c3ccc(-c4cccnc4)cc3Oc3c(O)cccc32)CC1` (stereo not drawn) [6i, 9-(1-Allyl-piperidin-4-yl)-6-pyridin-3-yl-9H-xanthen-4-ol] the figure was 27.5 nM.

`C=CCN1CCC(C2c3ccccc3Oc3cc(C(=O)N4CC[C@H](O)C4)ccc32)CC1` (stereo partly drawn) [7n, [9-(1-Allyl-piperidin-4-yl)-9H-xanthen-3-yl]-(3-(S)-hydroxy-pyrrolidin-1-yl)-methanone]: on delta opioid receptor (setting [1]), the Ki came out at 9230 nM. Regarding `COc1cccc2c1Sc1cc(-c3cccnc3)ccc1C2C1CCNCC1` (stereo not drawn) [9q, 3-(5-Methoxy-9-piperidin-4-yl-9H-thioxanthen-3-yl)-pyridine], the Ki at delta opioid receptor was 87.8 nM. As to `Oc1cccc2c1Sc1cc(-c3cccnc3)ccc1C2C1CCNCC1` (stereo not drawn) [10q, 9-Piperidin-4-yl-6-pyridin-3-yl-9H-thioxanthen-4-ol], on delta opioid receptor, the Ki was 0.2 nM.

The molecule `COc1cccc2c1Sc1cc(-c3ccncc3)ccc1C2C1CCNCC1` (stereo not drawn) [11q, 4-(5-Methoxy-9-piperidin-4-yl-9H-thioxanthen-3-yl)-pyridine] displayed a Ki on delta opioid receptor of 68.1 nM.

In turn, `Oc1cccc2c1Sc1cc(-c3ccncc3)ccc1C2C1CCNCC1` (stereo not drawn) [12q, 9-Piperidin-4-yl-6-pyridin-4-yl-9H-thioxanthen-4-ol] returned a Ki at delta opioid receptor of 0.7 nM.

Consider `COc1cccc2c1Sc1cc(-c3ccccc3NC(C)=O)ccc1C2C1CCNCC1` (stereo not drawn) [13q, N-[2-(5-Methoxy-9-piperidin-4-yl-9H-thioxanthen-3-yl)-phenyl]-acetamide], for which the Ki at delta opioid receptor (setting [1]) amounted to 110 nM.

Regarding `CC(=O)Nc1ccccc1-c1ccc2c(c1)Sc1c(O)cccc1C2C1CCNCC1` (stereo not drawn) [14q, N-[2-(5-Hydroxy-9-piperidin-4-yl-9H-thioxanthen-3-yl)-phenyl]-acetamide], the Ki on delta opioid receptor turned out to be 0.2 nM.

The molecule `Oc1cccc2c1Sc1cc(-c3ccncc3)ccc1C2C1CCN(Cc2ccccn2)CC1` (stereo not drawn) [15q, 6-Pyridin-4-yl-9-(1-pyridin-2-ylmethyl-piperidin-4-yl)-9H-thioxanthen-4-ol] had a Ki on delta opioid receptor of 0.1 nM. Take `C=CCN1CCC(C2c3ccc(-c4ccccc4NC(C)=O)cc3Sc3c(O)cccc32)CC1` (stereo not drawn) [16q, N-{2-[9-(1-Allyl-piperidin-4-yl)-5-hydroxy-9H-thioxanthen-3-yl]-phenyl}-acetamide]: the Ki at delta opioid receptor (setting [1]) amounted to 121 nM.

With `Oc1cccc2c1Sc1cc(-c3cccnc3)ccc1C2C1CCN(Cc2ccccn2)CC1` (stereo not drawn) [18q, 6-Pyridin-3-yl-9-(1-pyridin-2-ylmethyl-piperidin-4-yl)-9H-thioxanthen-4-ol], the Ki on delta opioid receptor was determined as 0.4 nM. Still for that read-out and setting: with `CC(=O)Nc1ccccc1-c1ccc2c(c1)Sc1c(O)cccc1C2C1CCN(Cc2ccccn2)CC1` (stereo not drawn) [19q, N-{2-[5-Hydroxy-9-(1-pyridin-2-ylmethyl-piperidin-4-yl)-9H-thioxanthen-3-yl]-phenyl}-acetamide] the figure was 0.1 nM.
